Tests used:
Settings in all cases: exposure time: 72 h
E21 [1] = patient-derived glioblastoma stem cells of mesenchymal subtype; assay: surviving fraction (nuclei count normalised to DMSO); higher = more cells surviving (less toxic)
FT3469 [2] = normal neural stem cell line; assay: as above
E31 [3] = patient-derived glioblastoma stem cells of proneural subtype; assay: as above
E34 [4] = patient-derived glioblastoma stem cells of proneural subtype; assay: as above
E57 [5] = patient-derived glioblastoma stem cells of mesenchymal subtype; assay: as above
E28 [6] = patient-derived glioblastoma stem cells of classical subtype; assay: as above
E13 [7] = patient-derived glioblastoma stem cells of classical subtype; assay: as above
E21 [8] = assay: phenotypic distance (Euclidean, principal components) from DMSO controls (arbitrary units); higher = stronger morphological change
FT3469 [9] = assay: as above
E31 [10] = assay: as above
E34 [11] = assay: as above
E57 [12] = assay: as above
E28 [13] = assay: as above
E13 [14] = assay: as above
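Wherever phenotypic distance (Euclidean, principal components) from DMSO controls is given: cell Painting imaging in 384-well plates, CellProfiler features reduced to at least 20 principal components, Euclidean distance versus same-plate DMSO vehicle wells (0.1% v/v), median over six images per well.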
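Wherever surviving fraction (nuclei count normalised to DMSO) is given: nuclei counted by high-content imaging of Hoechst-stained cells in laminin-coated 384-well plates, relative to 0.1% DMSO vehicle wells, with staurosporine as cell-death control.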

CC(C)C[C@H](NC(=O)[C@H](CCc1ccccc1)NC(=O)CN1CCOCC1)C(=O)N[C@@H](Cc1ccccc1)C(=O)N[C@@H](CC(C)C)C(=O)[C@@]1(C)CO1 [Carfilzomib]
Settings | phenotypic distance | surviving fraction
E13 [7], 4.1 nM | – | 0.0693
E13 [7], 12.3 nM | – | 0.000925
E13 [7], 37 nM | – | 0.00185
E13 [7], 111.1 nM | – | 0.0037
E13 [7], 333.3 nM | – | 0.00277
E13 [7], 1000 nM | – | 0
E13 [7], 3000 nM | – | 0
E13 [14], 4.1 nM | 7.83 | –
E13 [14], 12.3 nM | 12.9 | –
E13 [14], 37 nM | 15.6 | –
E13 [14], 111.1 nM | 16.7 | –
E13 [14], 333.3 nM | 13.2 | –
E13 [14], 1000 nM | 18.4 | –
E13 [14], 3000 nM | 20.8 | –
E21 [1], 4.1 nM | – | 0.281
E21 [1], 12.3 nM | – | 0.00694
E21 [1], 37 nM | – | 0.00198
E21 [1], 111.1 nM | – | 0.000991
E21 [1], 333.3 nM | – | 0
E21 [1], 1000 nM | – | 0.00297
E21 [1], 3000 nM | – | 0.000991
E21 [8], 4.1 nM | 6.32 | –
E21 [8], 12.3 nM | 12.1 | –
E21 [8], 37 nM | 18.5 | –
E21 [8], 111.1 nM | 17.9 | –
E21 [8], 333.3 nM | 24 | –
E21 [8], 1000 nM | 18.7 | –
E21 [8], 3000 nM | 17.1 | –
E28 [6], 4.1 nM | – | 0.177
E28 [6], 12.3 nM | – | 0.0576
E28 [6], 37 nM | – | 0.0811
E28 [6], 111.1 nM | – | 0.0683
E28 [6], 333.3 nM | – | 0.109
E28 [6], 1000 nM | – | 0.0768
E28 [6], 3000 nM | – | 0.16
E28 [13], 4.1 nM | 3.34 | –
E28 [13], 12.3 nM | 5.12 | –
E28 [13], 37 nM | 6.26 | –
E28 [13], 111.1 nM | 5.31 | –
E28 [13], 333.3 nM | 5.36 | –
E28 [13], 1000 nM | 5.52 | –
E28 [13], 3000 nM | 5.18 | –
E31 [3], 4.1 nM | – | 0.0683
E31 [3], 12.3 nM | – | 0.00163
E31 [3], 37 nM | – | 0.00651
E31 [3], 111.1 nM | – | 0.00163
E31 [3], 333.3 nM | – | 0.00814
E31 [3], 1000 nM | – | 0.013
E31 [3], 3000 nM | – | 0.0195
E31 [10], 4.1 nM | 8.54 | –
E31 [10], 12.3 nM | 12.7 | –
E31 [10], 37 nM | 11.3 | –
E31 [10], 111.1 nM | 12.1 | –
E31 [10], 333.3 nM | 9.53 | –
E31 [10], 1000 nM | 9.35 | –
E31 [10], 3000 nM | 8.45 | –
E34 [4], 4.1 nM | – | 0.262
E34 [4], 12.3 nM | – | 0.0542
E34 [4], 37 nM | – | 0.035
E34 [4], 111.1 nM | – | 0.0297
E34 [4], 333.3 nM | – | 0.042
E34 [4], 1000 nM | – | 0.035
E34 [4], 3000 nM | – | 0.0455
E34 [11], 4.1 nM | 5.47 | –
E34 [11], 12.3 nM | 11.7 | –
E34 [11], 37 nM | 12.5 | –
E34 [11], 111.1 nM | 13.8 | –
E34 [11], 333.3 nM | 15.8 | –
E34 [11], 1000 nM | 14.1 | –
E34 [11], 3000 nM | 14.9 | –
E57 [5], 4.1 nM | – | 0.0418
E57 [5], 12.3 nM | – | 0.00509
E57 [5], 37 nM | – | 0.00509
E57 [5], 111.1 nM | – | 0.00305
E57 [5], 333.3 nM | – | 0.00509
E57 [5], 1000 nM | – | 0.00407
E57 [5], 3000 nM | – | 0.00458
E57 [12], 4.1 nM | 12.2 | –
E57 [12], 12.3 nM | 12.4 | –
E57 [12], 37 nM | 11.4 | –
E57 [12], 111.1 nM | 12.8 | –
E57 [12], 333.3 nM | 8.61 | –
E57 [12], 1000 nM | 14.1 | –
E57 [12], 3000 nM | 13.2 | –
FT3469 [2], 4.1 nM | – | 0.224
FT3469 [2], 12.3 nM | – | 0.158
FT3469 [2], 37 nM | – | 0.124
FT3469 [2], 111.1 nM | – | 0.095
FT3469 [2], 333.3 nM | – | 0.0806
FT3469 [2], 1000 nM | – | 0.112
FT3469 [2], 3000 nM | – | 0.0863
FT3469 [9], 4.1 nM | 5.32 | –
FT3469 [9], 12.3 nM | 7.47 | –
FT3469 [9], 37 nM | 7.85 | –
FT3469 [9], 111.1 nM | 6.13 | –
FT3469 [9], 333.3 nM | 7.43 | –
FT3469 [9], 1000 nM | 6.91 | –
FT3469 [9], 3000 nM | 7.23 | –

Cc1cc(C(C)(C)CC(C)(C)C)ccc1OCCOCC[N+](C)(C)Cc1ccccc1 [Methyl benzethonium chloride]
Settings | phenotypic distance | surviving fraction
E13 [7], 4.1 nM | – | 1.06
E13 [7], 37 nM | – | 0.985
E13 [7], 111.1 nM | – | 1
E13 [7], 333.3 nM | – | 0.905
E13 [7], 1000 nM | – | 0.77
E13 [7], 3000 nM | – | 0.0607
E13 [14], 4.1 nM | 0.567 | –
E13 [14], 37 nM | 0.631 | –
E13 [14], 111.1 nM | 0.7 | –
E13 [14], 333.3 nM | 1.46 | –
E13 [14], 1000 nM | 2.26 | –
E13 [14], 3000 nM | 7.09 | –
E21 [1], 4.1 nM | – | 1.05
E21 [1], 37 nM | – | 1.08
E21 [1], 111.1 nM | – | 1.13
E21 [1], 333.3 nM | – | 1.09
E21 [1], 1000 nM | – | 1.11
E21 [1], 3000 nM | – | 0.0579
E21 [8], 4.1 nM | 0.505 | –
E21 [8], 37 nM | 0.8 | –
E21 [8], 111.1 nM | 1.42 | –
E21 [8], 333.3 nM | 1.89 | –
E21 [8], 1000 nM | 1.88 | –
E21 [8], 3000 nM | 7.45 | –
E28 [6], 4.1 nM | – | 1.18
E28 [6], 37 nM | – | 1.12
E28 [6], 111.1 nM | – | 1.01
E28 [6], 333.3 nM | – | 1.03
E28 [6], 1000 nM | – | 0.915
E28 [6], 3000 nM | – | 0.122
E28 [13], 4.1 nM | 0.909 | –
E28 [13], 37 nM | 0.85 | –
E28 [13], 111.1 nM | 0.845 | –
E28 [13], 333.3 nM | 1.63 | –
E28 [13], 1000 nM | 1.45 | –
E28 [13], 3000 nM | 5.99 | –
E31 [3], 4.1 nM | – | 1.14
E31 [3], 37 nM | – | 1.3
E31 [3], 111.1 nM | – | 0.971
E31 [3], 333.3 nM | – | 1.04
E31 [3], 1000 nM | – | 0.959
E31 [3], 3000 nM | – | 0.0251
E31 [10], 4.1 nM | 0.64 | –
E31 [10], 37 nM | 1.09 | –
E31 [10], 111.1 nM | 0.959 | –
E31 [10], 333.3 nM | 1.67 | –
E31 [10], 1000 nM | 1.56 | –
E31 [10], 3000 nM | 10.6 | –
E34 [4], 4.1 nM | – | 1.05
E34 [4], 37 nM | – | 1.16
E34 [4], 111.1 nM | – | 1.28
E34 [4], 333.3 nM | – | 1.15
E34 [4], 1000 nM | – | 0.97
E34 [4], 3000 nM | – | 0.507
E34 [11], 4.1 nM | 0.669 | –
E34 [11], 37 nM | 1.03 | –
E34 [11], 111.1 nM | 3.75 | –
E34 [11], 333.3 nM | 1.62 | –
E34 [11], 1000 nM | 1.37 | –
E34 [11], 3000 nM | 2.97 | –
E57 [5], 4.1 nM | – | 1.1
E57 [5], 37 nM | – | 1.08
E57 [5], 111.1 nM | – | 0.952
E57 [5], 333.3 nM | – | 1.08
E57 [5], 1000 nM | – | 0.992
E57 [5], 3000 nM | – | 0.232
E57 [12], 4.1 nM | 0.767 | –
E57 [12], 37 nM | 0.775 | –
E57 [12], 111.1 nM | 0.964 | –
E57 [12], 333.3 nM | 1.11 | –
E57 [12], 1000 nM | 1.42 | –
E57 [12], 3000 nM | 5.11 | –
FT3469 [2], 4.1 nM | – | 1.08
FT3469 [2], 37 nM | – | 1.23
FT3469 [2], 111.1 nM | – | 1.28
FT3469 [2], 333.3 nM | – | 0.993
FT3469 [2], 1000 nM | – | 0.937
FT3469 [2], 3000 nM | – | 0.135
FT3469 [9], 4.1 nM | 0.966 | –
FT3469 [9], 37 nM | 0.81 | –
FT3469 [9], 111.1 nM | 1.14 | –
FT3469 [9], 333.3 nM | 1.12 | –
FT3469 [9], 1000 nM | 0.916 | –
FT3469 [9], 3000 nM | 5.6 | –

From the supplement of paper PMC13207355
